Tested on: PCK rats
Experiment: In vivo study of the effects of lixivaptan on PCK rats
Parameters: species or system rat
Settings: for % kidney weight/body weight: both genders
Description: A study was performed that examined the effect of lixivaptan (0.5% or 1% w/w lixivaptan in ground rodent chow) on bodyweight, kidney weight, kidney cAMP, urine output, and serum electrolyte concentration in PCK rats, an orthologous animal model of Autosomal Recessive PKD that develops a phenotype reminiscent of ADPKD.
Experimental animals and study design. PCK rats were divided into control and treatment groups at four weeks of age (n=59, ˜10 animals per treatment group and gender). Lixivaptan was dissolved in DMSO and added to ground rodent chow (Regrind Labdiet 5053) at 0.5% or 1.0% concentration (w/w) by homogenous mixing, whereas control animals received the same diet without lixivaptan. Animals were exposed to control- or lixivaptan-diet for eight weeks and were sacrificed at twelve weeks of age.
Experimental Protocol. […] At the end of the dosing period, the animals were weighed and anesthetized with ketamine 90 mg/kg and xylazine 10 mg/kg, IP. Blood samples were obtained by cardiac puncture for determination of plasma electrolytes, creatinine and plasma urea levels. The right kidney and part of the liver were placed into pre-weighed vials containing 10% formaldehyde in phosphate buffer (pH 7.4). The tissues were embedded in paraffin for histological studies. The left kidneys were immediately frozen in liquid nitrogen for determination of cAMP.
Statistical Analysis. Comparisons between groups were analyzed using one-way or two-way analysis of variance (ANOVA) with least significant difference comparisons of the means or student's t-test as appropriate. Data were expressed as means±SD.

[1] = PCK rats, 0.5% lixivaptan, compared to control
[2] = PCK rats, 0.5% lixivaptan, compared to control, p=0.08

Cc1ccc(F)cc1C(=O)Nc1ccc(C(=O)N2Cc3cccn3Cc3ccccc32)c(Cl)c1 [Lixivaptan, 5-fluoro-2-methyl-N-[4-(5H-pyrrolo[2,1-C] [1,4]benzodiazepin-10(11H)-ylcarbonyl)-3-chlorophenyl]benzamide]
24 hr urine week 7 (PCK rats F, 0.5% Lixivaptan): 33.5 ± 8.6 mL | 24 hr urine week 10 (PCK rats F, 0.5% Lixivaptan): 47.7 ± 16.8 mL | % Kidney/Body Weight (PCK rats F, 0.5% Lixivaptan): 1.11 ± 0.10 % | % Liver/Body Weight (PCK rats F, 0.5% Lixivaptan): 5.72 ± 0.42% | Kidney Cyst Score (PCK rats F, 0.5% Lixivaptan): 7.1 ± 4.2 % | Kidney Fibrosis Score (PCK rats F, 0.5% Lixivaptan): 2.0 ± 1.1% | Liver Cyst Score (PCK rats F, 0.5% Lixivaptan): 3.7 ± 0.8% | Liver Fibrois Score (PCK rats F, 0.5% Lixivaptan): 2.7 ± 0.3% | Liver Weight (PCK rats F, 0.5% Lixivaptan): 14.5 ± 1.6 g | Plasma Creatinine (PCK rats F, 0.5% Lixivaptan): 0.64 ± 0.08 mg/dL | Plasma Sodium (PCK rats F, 0.5% Lixivaptan): 145 ± 2 mEq/L | Plasma Urea (PCK rats F, 0.5% Lixivaptan): 32.3 ± 3.9 mg/dL | Total Kidney Weight (PCK rats F, 0.5% Lixivaptan): 2.82 ± 0.33 g | 24 hr urine week 7 (PCK rats F, 1.0% Lixivaptan): 39.7 ± 14.2 mL | 24 hr urine week 10 (PCK rats F, 1.0% Lixivaptan): 54.8 ± 19.3 mL | % Kidney/Body Weight (PCK rats F, 1.0% Lixivaptan): 1.75 ± 0.99% | % Liver/Body Weight (PCK rats F, 1.0% Lixivaptan): 7.11 ± 2.61% | Kidney Cyst Score (PCK rats F, 1.0% Lixivaptan): 11.9 ± 3.1% | Kidney Fibrosis Score (PCK rats F, 1.0% Lixivaptan): 2.1 ± 0.8% | Liver Cyst Score (PCK rats F, 1.0% Lixivaptan): 6.2 ± 2.7% | Liver Fibrois Score (PCK rats F, 1.0% Lixivaptan): 4.1 ± 1.4% | Liver Weight (PCK rats F, 1.0% Lixivaptan): 16.8 ± 6.7 g | Plasma Creatinine (PCK rats F, 1.0% Lixivaptan): 0.68 ± 0.06 mg/dL | Plasma Sodium (PCK rats F, 1.0% Lixivaptan): 143 ± 3 mEq/L | Plasma Urea (PCK rats F, 1.0% Lixivaptan): 37.7 ± 10.5 mg/dL | Total Kidney Weight (PCK rats F, 1.0% Lixivaptan): 4.14 ± 2.46 g | 24 hr urine week 7 (PCK rats M, 0.5% Lixivaptan): 45.5 ± 9.1 mL | 24 hr urine week 10 (PCK rats M, 0.5% Lixivaptan): 53.5 ± 14.3 mL | % Kidney/Body Weight (PCK rats M, 0.5% Lixivaptan): 1.37 ± 0.45% | % Liver/Body Weight (PCK rats M, 0.5% Lixivaptan): 5.49 ± 0.44% | Kidney Cyst Score (PCK rats M, 0.5% Lixivaptan): 7.7 ± 1.7 % | Kidney Fibrosis Score (PCK rats M, 0.5% Lixivaptan): 1.8 ± 1.2% | Liver Cyst Score (PCK rats M, 0.5% Lixivaptan): 3.2 ± 1.6% | Liver Fibrois Score (PCK rats M, 0.5% Lixivaptan): 3.1 ± 1.1% | Liver Weight (PCK rats M, 0.5% Lixivaptan): 23.8 ± 2.3 g | Plasma Creatinine (PCK rats M, 0.5% Lixivaptan): 0.63 ± 0.07 mg/dL | Plasma Sodium (PCK rats M, 0.5% Lixivaptan): 147 ± 4 mEq/L | Plasma Urea (PCK rats M, 0.5% Lixivaptan): 32.2 ± 5.8 mg/dL | Total Kidney Weight (PCK rats M, 0.5% Lixivaptan): 5.97 ± 2.04 g | 24 hr urine week 7 (PCK rats M, 1.0% Lixivaptan): 53.9 ± 7.4 mL | 24 hr urine week 10 (PCK rats M, 1.0% Lixivaptan): 63.7 ± 10.1 mL | % Kidney/Body Weight (PCK rats M, 1.0% Lixivaptan): 1.47 ± 0.46% | % Liver/Body Weight (PCK rats M, 1.0% Lixivaptan): 5.60 ± 0.61% | Kidney Cyst Score (PCK rats M, 1.0% Lixivaptan): 12.0 ± 3.7 % | Kidney Fibrosis Score (PCK rats M, 1.0% Lixivaptan): 2.9 ± 1.3% | Liver Cyst Score (PCK rats M, 1.0% Lixivaptan): 5.8 ± 1.3% | Liver Fibrois Score (PCK rats M, 1.0% Lixivaptan): 4.2 ± 2.0% | Liver Weight (PCK rats M, 1.0% Lixivaptan): 22.5 ± 2.7 g | Plasma Creatinine (PCK rats M, 1.0% Lixivaptan): 0.67 ± 0.04 mg/dL | Plasma Sodium (PCK rats M, 1.0% Lixivaptan): 147 ± 1 mEq/L | Plasma Urea (PCK rats M, 1.0% Lixivaptan): 32.3 ± 5.0 mg/dL | Total Kidney Weight (PCK rats M, 1.0% Lixivaptan): 5.92 ± 1.95 g | improvement in cystic phenotype compared to control (PCK rats, 0.5% lixivaptan): 54% | increase in serum sodium (PCK rats, 0.5% lixivaptan): 1.6% | reduction in kidney weight as a percentage of body weight (relative kidney size) [1]: 26% | reduction in liver cyst score [1]: 39% | reduction in liver fibrosis score [2]: 20.6% | reduction in ratio of liver weight vs. body weight [2]: 5.2% | beneficial effect on kidney fibrosis score (PCK rats, 0.5% lixivaptan, p=0.12): 30% | increase in 24 h urine output (PCK rats, 0.5% lixivaptan, study week 3 (rats at 7 weeks of age)): 175% | increase in 24 h urine output (PCK rats, 0.5% lixivaptan, study week 6 (rats at 10 weeks of age)): 189% | effect on liver pathology (PCK rats, 1.0% lixivaptan): did not separate from control | improvement in cystic phenotype compared to control (PCK rats, 1.0% lixivaptan): 25% | increase in urine output (PCK rats, 1.0% lixivaptan, Study week 3): 223% | increase in urine output (PCK rats, 1.0% lixivaptan, Study week 6): 237% | % kidney weight/body weight (PCK rats, 0.5% lixivaptan): 1.2% | % kidney weight/body weight (PCK rats, 1.0% lixivaptan, all animals): 1.6% | % kidney weight/body weight (PCK rats, 1.0% lixivaptan, three outliers removed): 1.3% | reduction in serum creatinine (PCK rats, compared to control): 13.2%

— patent US11241441B2, “Formulations of lixivaptan for the treatment of polycystic disease” (PALLADIO BIOSCIENCES, INC., priority 2017, dated 2022)
